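Interpolation was linear, between the two tested concentrations surrounding the appropriate level; five concentrations were tested over 48 hours in 96-well plates. TGI: concentration producing complete growth inhibition.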
How the values were obtained:
Test in all cases: NCI-60 cell line screen, 48 h
LOX IMVI melanoma = test system: LOX IMVI melanoma
OVCAR-4 ovarian = test system: OVCAR-4 ovarian
M19-MEL melanoma = test system: M19-MEL melanoma
COLO 205 colon = test system: COLO 205 colon
NCI-H522 lung = test system: NCI-H522 lung
NCI-H23 lung = test system: NCI-H23 lung
SK-MEL-5 melanoma = test system: SK-MEL-5 melanoma
SF-268 CNS = test system: SF-268 CNS
SNB-19 CNS = test system: SNB-19 CNS
RXF 393 renal = test system: RXF 393 renal
OVCAR-5 ovarian = test system: OVCAR-5 ovarian
NCI-H460 lung = test system: NCI-H460 lung
A498 renal = test system: A498 renal
MOLT-4 leukemia = test system: MOLT-4 leukemia
ACHN renal = test system: ACHN renal
UACC-257 melanoma = test system: UACC-257 melanoma
TK-10 renal = test system: TK-10 renal
EKVX NSCLC = test system: EKVX NSCLC
UACC-62 melanoma = test system: UACC-62 melanoma
A549 NSCLC = test system: A549 NSCLC
SF-295 CNS = test system: SF-295 CNS
SNB-78 CNS = test system: SNB-78 CNS
DLD-1 colon = test system: DLD-1 colon
SNB-75 CNS = test system: SNB-75 CNS
SW-620 colon = test system: SW-620 colon
K-562 leukemia = test system: K-562 leukemia
HL-60(TB) leukemia = test system: HL-60(TB) leukemia
SK-OV-3 ovarian = test system: SK-OV-3 ovarian
RPMI-8226 leukemia = test system: RPMI-8226 leukemia
HCT-15 colon = test system: HCT-15 colon
CCRF-CEM leukemia = test system: CCRF-CEM leukemia
HCT-116 colon = test system: HCT-116 colon
HCC-2998 colon = test system: HCC-2998 colon
KM12 colon = test system: KM12 colon
XF 498 CNS = test system: XF 498 CNS
SN12C renal = test system: SN12C renal
UO-31 renal = test system: UO-31 renal
SK-MEL-2 melanoma = test system: SK-MEL-2 melanoma
MALME-3M melanoma = test system: MALME-3M melanoma
HOP-62 NSCLC = test system: HOP-62 NSCLC
CAKI-1 renal = test system: CAKI-1 renal
DMS 273 small cell lung = test system: DMS 273 small cell lung
SK-MEL-28 melanoma = test system: SK-MEL-28 melanoma
OVCAR-8 ovarian = test system: OVCAR-8 ovarian
LXFL 529 NSCLC = test system: LXFL 529 NSCLC
U251 CNS = test system: U251 CNS
SF-539 CNS = test system: SF-539 CNS
HOP-92 NSCLC = test system: HOP-92 NSCLC
RXF-631 renal = test system: RXF-631 renal
786-0 renal = test system: 786-0 renal
HT29 colon = test system: HT29 colon
IGROV1 ovarian = test system: IGROV1 ovarian
M14 melanoma = test system: M14 melanoma
OVCAR-3 ovarian = test system: OVCAR-3 ovarian
DMS 114 small cell lung = test system: DMS 114 small cell lung
HOP-18 NSCLC = test system: HOP-18 NSCLC
KM20L2 colon = test system: KM20L2 colon
NCI-H226 lung = test system: NCI-H226 lung

Measured: TGI

COC(=O)C1CCC(C)CC1=O (stereo unspecified)
> 100 µM: LOX IMVI melanoma | OVCAR-4 ovarian | M19-MEL melanoma | COLO 205 colon | NCI-H522 lung | NCI-H23 lung | SK-MEL-5 melanoma | SF-268 CNS | SNB-19 CNS | RXF 393 renal | OVCAR-5 ovarian | NCI-H460 lung | A498 renal | MOLT-4 leukemia | ACHN renal | UACC-257 melanoma | TK-10 renal | EKVX NSCLC | UACC-62 melanoma | A549 NSCLC | SF-295 CNS | SNB-78 CNS | DLD-1 colon | SNB-75 CNS | SW-620 colon | K-562 leukemia | HL-60(TB) leukemia | SK-OV-3 ovarian | RPMI-8226 leukemia | HCT-15 colon | CCRF-CEM leukemia | HCT-116 colon | HCC-2998 colon | KM12 colon | XF 498 CNS | SN12C renal | UO-31 renal | SK-MEL-2 melanoma | MALME-3M melanoma | HOP-62 NSCLC | CAKI-1 renal | DMS 273 small cell lung | SK-MEL-28 melanoma | OVCAR-8 ovarian | LXFL 529 NSCLC | U251 CNS | SF-539 CNS | HOP-92 NSCLC | RXF-631 renal | 786-0 renal | HT29 colon | IGROV1 ovarian | M14 melanoma | OVCAR-3 ovarian | DMS 114 small cell lung

CC(C)(C)OC(=O)N[C@H]1CC(=O)c2ccccc2N(CC(=O)O)C1=O
> 100 µM: LOX IMVI melanoma | OVCAR-4 ovarian | M19-MEL melanoma | COLO 205 colon | NCI-H522 lung | NCI-H23 lung | SK-MEL-5 melanoma | SF-268 CNS | SNB-19 CNS | HOP-18 NSCLC | KM20L2 colon | RXF 393 renal | NCI-H460 lung | MOLT-4 leukemia | ACHN renal | UACC-257 melanoma | TK-10 renal | EKVX NSCLC | UACC-62 melanoma | A549 NSCLC | SF-295 CNS | DLD-1 colon | SNB-75 CNS | SW-620 colon | HL-60(TB) leukemia | SK-OV-3 ovarian | HCT-15 colon | CCRF-CEM leukemia | HCC-2998 colon | KM12 colon | SN12C renal | UO-31 renal | SK-MEL-2 melanoma | HOP-62 NSCLC | CAKI-1 renal | DMS 273 small cell lung | SK-MEL-28 melanoma | OVCAR-8 ovarian | LXFL 529 NSCLC | SF-539 CNS | HOP-92 NSCLC | RXF-631 renal | 786-0 renal | HT29 colon | IGROV1 ovarian | M14 melanoma | OVCAR-3 ovarian | NCI-H226 lung | DMS 114 small cell lung
37.1 µM: MALME-3M melanoma
75 µM: HCT-116 colon

CC1CCCP(=O)(c2ccccc2)CCC1 (stereo unspecified)
96.4 µM: HOP-18 NSCLC
> 100 µM: LOX IMVI melanoma | OVCAR-4 ovarian | M19-MEL melanoma | COLO 205 colon | NCI-H23 lung | SK-MEL-5 melanoma | SF-268 CNS | SNB-19 CNS | KM20L2 colon | RXF 393 renal | OVCAR-5 ovarian | NCI-H460 lung | A498 renal | MOLT-4 leukemia | ACHN renal | UACC-257 melanoma | TK-10 renal | EKVX NSCLC | UACC-62 melanoma | A549 NSCLC | SF-295 CNS | SNB-78 CNS | DLD-1 colon | SNB-75 CNS | SW-620 colon | K-562 leukemia | HL-60(TB) leukemia | SK-OV-3 ovarian | RPMI-8226 leukemia | HCT-15 colon | CCRF-CEM leukemia | HCC-2998 colon | KM12 colon | XF 498 CNS | SN12C renal | UO-31 renal | SK-MEL-2 melanoma | MALME-3M melanoma | HOP-62 NSCLC | CAKI-1 renal | DMS 273 small cell lung | SK-MEL-28 melanoma | OVCAR-8 ovarian | LXFL 529 NSCLC | U251 CNS | SF-539 CNS | RXF-631 renal | 786-0 renal | HT29 colon | IGROV1 ovarian | M14 melanoma | OVCAR-3 ovarian | DMS 114 small cell lung

CC(C)c1ccc(Cc2ccc(C(C)C)c(NC(=O)C(=O)Cc3cnc4ccccc4n3)c2C(C)C)c(C(C)C)c1NC(=O)C(=O)Cc1cnc2ccccc2n1
91.8 µM: HOP-92 NSCLC
> 100 µM: LOX IMVI melanoma | OVCAR-4 ovarian | M19-MEL melanoma | COLO 205 colon | SK-MEL-5 melanoma | SNB-19 CNS | KM20L2 colon | OVCAR-5 ovarian | NCI-H460 lung | A498 renal | MOLT-4 leukemia | ACHN renal | UACC-257 melanoma | TK-10 renal | EKVX NSCLC | UACC-62 melanoma | A549 NSCLC | SF-295 CNS | SNB-78 CNS | DLD-1 colon | SW-620 colon | K-562 leukemia | HL-60(TB) leukemia | SK-OV-3 ovarian | RPMI-8226 leukemia | HCT-15 colon | CCRF-CEM leukemia | HCT-116 colon | HCC-2998 colon | KM12 colon | UO-31 renal | SK-MEL-2 melanoma | MALME-3M melanoma | HOP-62 NSCLC | CAKI-1 renal | OVCAR-8 ovarian | LXFL 529 NSCLC | U251 CNS | SF-539 CNS | RXF-631 renal | 786-0 renal | IGROV1 ovarian | M14 melanoma | OVCAR-3 ovarian | DMS 114 small cell lung

From PubChem BioAssay (NCI)
